The values below come from patent publication US8058009B2, “Target protein and target gene in drug designing and screening method” (Reverse Proteomics Research Institute Co., Ltd., priority 2004, dated 2011).

Assay [1] concerns mutant SOD-transgenic mouse showing ALS-like symptoms. The settings on record: intraperitoneally administered; cited from earlier work.
The target in another assay is T1, FLJ10335-derived protein (Homo sapiens, UniProt Q9NW38, S77P).
T1 construct: made in house; host or cells: wheat germ cell-free synthesis system (PROTEIOS, Toyobo)
T1 sequence (Q9NW38 1-375 S77P): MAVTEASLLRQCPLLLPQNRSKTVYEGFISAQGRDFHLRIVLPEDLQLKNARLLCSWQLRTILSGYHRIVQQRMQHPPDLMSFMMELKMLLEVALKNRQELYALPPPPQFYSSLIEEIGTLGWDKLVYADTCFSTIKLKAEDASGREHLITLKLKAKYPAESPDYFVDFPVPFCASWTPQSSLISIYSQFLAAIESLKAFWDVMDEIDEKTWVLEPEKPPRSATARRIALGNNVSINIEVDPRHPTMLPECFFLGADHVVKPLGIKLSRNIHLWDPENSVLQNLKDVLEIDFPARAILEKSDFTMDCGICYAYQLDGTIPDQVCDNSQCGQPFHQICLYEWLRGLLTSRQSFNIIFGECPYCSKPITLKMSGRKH
Kind of assay: Biacore S51 surface plasmon resonance binding to FLJ10335-derived protein. How it is done:
(§1) A desired gene of a human full-length cDNA clone was BP-reacted with the PCR cloning vector Gateway pDONR201 using the Invitrogen Gateway system per the kit protocol to yield an entry vector. […]
(§2) The surface of the CM5 sensor chip for S51 commercially available from Biacore Company was subjected to an NTA treatment with 1 M EDC, 1.33 M NHS and 16 mg/ml AB-NTA (pH 9.2) to prepare an NTA sensor chip for S51. […] A correction for the effect of DMSO contained in the compound solutions and running buffer (solvent correction) was performed on the basis of measured results from separately prepared solutions mimicking the running buffer, and containing 3.8 to 5.1% of DMSO (8 points). The compound characterization assay program for Biacore S51 was performed to measure the interactions between immobilized ligands (proteins) and analytes (compounds; 62.5 μM to 0.244 μM), and the results were analyzed using a dedicated software program. […]
(SPR reads the build-up and loss of mass on a sensor chip optically.)

The next assay deals with T2, FLJ14583-derived protein (Homo sapiens, UniProt Q12816).
T2 construct: made in house; host or cells: wheat germ cell-free synthesis system (PROTEIOS, Toyobo)
T2 sequence (Q12816 1-706 isoform Q12816-2): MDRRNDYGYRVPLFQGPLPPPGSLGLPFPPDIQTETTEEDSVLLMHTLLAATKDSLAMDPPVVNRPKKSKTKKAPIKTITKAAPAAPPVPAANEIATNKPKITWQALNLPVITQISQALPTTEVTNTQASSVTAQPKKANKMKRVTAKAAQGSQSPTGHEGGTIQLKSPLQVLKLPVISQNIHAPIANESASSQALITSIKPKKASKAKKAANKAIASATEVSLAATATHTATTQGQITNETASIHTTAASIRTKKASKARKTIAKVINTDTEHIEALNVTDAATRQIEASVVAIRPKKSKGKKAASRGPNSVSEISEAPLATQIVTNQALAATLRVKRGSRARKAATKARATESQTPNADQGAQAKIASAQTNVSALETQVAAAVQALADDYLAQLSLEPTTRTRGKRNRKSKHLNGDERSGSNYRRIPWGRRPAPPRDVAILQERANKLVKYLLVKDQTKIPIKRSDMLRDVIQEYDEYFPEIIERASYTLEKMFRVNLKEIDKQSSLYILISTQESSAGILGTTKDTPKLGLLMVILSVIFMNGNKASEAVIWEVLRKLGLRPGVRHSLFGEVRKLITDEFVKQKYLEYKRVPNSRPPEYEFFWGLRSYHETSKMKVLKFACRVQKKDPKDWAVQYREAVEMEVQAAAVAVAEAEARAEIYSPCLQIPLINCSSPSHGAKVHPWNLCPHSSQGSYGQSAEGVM
Kind of assay: Biacore S51 surface plasmon resonance binding to FLJ14583-derived protein. How it is done: as §1, §2

The target in another assay is T3, FLJ10889-derived protein (Homo sapiens, UniProt Q7L7V1, A496G/L459S/P686L/V123M).
T3 construct: made in house; host or cells: wheat germ cell-free synthesis system (PROTEIOS, Toyobo)
T3 sequence (Q7L7V1 1-743 V123M/L459S/A496G/P686L): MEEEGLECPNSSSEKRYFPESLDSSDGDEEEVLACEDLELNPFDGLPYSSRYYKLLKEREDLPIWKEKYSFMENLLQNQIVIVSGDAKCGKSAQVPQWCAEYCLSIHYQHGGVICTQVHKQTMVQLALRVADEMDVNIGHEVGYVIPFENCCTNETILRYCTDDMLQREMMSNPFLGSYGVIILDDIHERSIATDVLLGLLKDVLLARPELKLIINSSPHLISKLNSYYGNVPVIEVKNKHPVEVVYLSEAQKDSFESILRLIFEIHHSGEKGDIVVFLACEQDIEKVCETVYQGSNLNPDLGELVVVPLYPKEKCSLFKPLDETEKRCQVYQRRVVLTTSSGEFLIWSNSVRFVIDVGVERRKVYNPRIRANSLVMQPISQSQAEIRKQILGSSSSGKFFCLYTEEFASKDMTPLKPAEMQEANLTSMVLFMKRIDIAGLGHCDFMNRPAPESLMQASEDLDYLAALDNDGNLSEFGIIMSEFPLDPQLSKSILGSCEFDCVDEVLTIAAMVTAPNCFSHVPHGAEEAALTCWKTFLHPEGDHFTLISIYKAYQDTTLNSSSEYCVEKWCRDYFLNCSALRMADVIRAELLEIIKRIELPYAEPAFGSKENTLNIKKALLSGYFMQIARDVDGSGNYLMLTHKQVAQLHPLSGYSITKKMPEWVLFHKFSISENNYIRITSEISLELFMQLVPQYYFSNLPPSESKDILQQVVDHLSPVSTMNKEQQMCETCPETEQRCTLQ
Kind of assay: Biacore S51 surface plasmon resonance binding to FLJ10889-derived protein. How it is done:
as §1, §2

A further assay addresses T4, FLJ12502-derived protein (Homo sapiens, UniProt Q7Z3D6).
T4 construct: made in house; host or cells: wheat germ cell-free synthesis system (PROTEIOS, Toyobo)
T4 sequence (Q7Z3D6 29-616): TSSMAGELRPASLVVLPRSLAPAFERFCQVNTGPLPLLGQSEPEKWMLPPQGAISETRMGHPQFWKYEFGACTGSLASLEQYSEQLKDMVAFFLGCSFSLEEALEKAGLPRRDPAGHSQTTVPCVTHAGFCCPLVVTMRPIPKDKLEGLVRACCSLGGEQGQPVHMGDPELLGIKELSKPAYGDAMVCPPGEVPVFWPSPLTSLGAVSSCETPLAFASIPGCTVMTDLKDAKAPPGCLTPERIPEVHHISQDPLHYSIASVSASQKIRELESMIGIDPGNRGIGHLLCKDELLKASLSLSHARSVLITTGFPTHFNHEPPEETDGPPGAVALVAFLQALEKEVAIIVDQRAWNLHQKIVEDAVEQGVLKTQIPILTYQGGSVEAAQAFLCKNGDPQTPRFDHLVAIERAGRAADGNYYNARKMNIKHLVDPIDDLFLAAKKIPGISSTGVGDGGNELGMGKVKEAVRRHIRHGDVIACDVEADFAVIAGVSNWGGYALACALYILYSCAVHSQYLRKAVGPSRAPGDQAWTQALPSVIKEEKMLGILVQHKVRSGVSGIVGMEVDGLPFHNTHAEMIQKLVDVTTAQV
As to the kind of experiment: Biacore S51 surface plasmon resonance binding to FLJ12502-derived protein. How it is done: as §1, §2

For a further assay, the target named is T5, FLJ11045-derived protein (Homo sapiens, UniProt Q9BXT8, E1380K).
T5 construct: made in house; host or cells: wheat germ cell-free synthesis system (PROTEIOS, Toyobo)
T5 sequence (Q9BXT8 949-1581 isoform Q9BXT8-4 E1338K): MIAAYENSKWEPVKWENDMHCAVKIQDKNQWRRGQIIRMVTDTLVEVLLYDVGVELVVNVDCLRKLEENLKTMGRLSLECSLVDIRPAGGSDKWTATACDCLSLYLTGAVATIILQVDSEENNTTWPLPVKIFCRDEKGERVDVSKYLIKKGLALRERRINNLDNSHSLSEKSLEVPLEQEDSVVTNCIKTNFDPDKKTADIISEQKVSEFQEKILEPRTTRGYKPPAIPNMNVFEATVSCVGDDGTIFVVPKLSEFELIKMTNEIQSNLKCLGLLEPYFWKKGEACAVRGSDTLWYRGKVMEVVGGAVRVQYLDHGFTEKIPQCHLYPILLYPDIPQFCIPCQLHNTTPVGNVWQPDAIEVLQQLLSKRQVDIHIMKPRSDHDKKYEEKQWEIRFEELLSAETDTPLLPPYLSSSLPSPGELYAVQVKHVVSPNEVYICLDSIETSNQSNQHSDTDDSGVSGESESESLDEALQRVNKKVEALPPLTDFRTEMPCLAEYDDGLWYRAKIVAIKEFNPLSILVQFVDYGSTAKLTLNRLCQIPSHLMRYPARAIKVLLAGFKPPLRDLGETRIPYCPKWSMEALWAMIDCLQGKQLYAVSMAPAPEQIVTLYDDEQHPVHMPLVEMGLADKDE
As to the kind of experiment: Biacore S51 surface plasmon resonance binding to FLJ11045-derived protein.
Text: A desired gene of a human full-length cDNA clone was BP-reacted with the PCR cloning vector Gateway pDONR201 using the Invitrogen Gateway system per the kit protocol to yield an entry vector. As the destination vector for the Gateway system, a Gateway cassette having a Gateway recombinant sequence was introduced to allow the utilization of the Gateway system on the basis of pEU3-NII (Toyobo), which matches with a cell-free protein synthesis system (PROTEIOS) of Toyobo Co., Ltd., which employs a wheat germ extract, and a double tag destination vector modified using the PCR method to allow the expression of a peptide having a histidine tag and a FLAG tag sequence in the N-terminal region of the expressed protein was prepared.
The prepared double tag destination vector and entry vector were […] using the Invitrogen Gateway system per the protocol and the Escherichia coli competent cell DH5α was transformed therewith; a clone incorporating the expression vector was selected. A plasmid was prepared from the obtained clone using the QIAfilter Midi kit (QUIAGEN) per the kit protocol. The plasmid obtained was subjected to phenol/chloroform treatment per the protocol for PROTEIOS (Toyobo) to inactivate the RNase to yield a purified expression plasmid.
A recombinant protein was synthesized using a cell-free protein synthesis system (PROTEIOS) of Toyobo Co., Ltd., which employs a wheat germ extract. Subsequently, mRNA was prepared from the expression plasmid acquired by the method described in section 1 above per the protocol for PROTEIOS. With 20 μg of the mRNA acquired, a protein was synthesized per the protocol for PROTEIOS using two wells of a 96-well microtiter plate. The protein synthesized was subjected to high-speed centrifugation, the precipitate was removed, and the resulting soluble fraction was purified using ANTI-FLAG M2 Affinity Gel (SIGMA Company) having an anti-FLAG tag antibody immobilized hereto per the protocol, to yield a purified protein.
as §2

`CO/N=C(\C(=O)N[C@@H]1C(=O)N2C(C(=O)O)=C(CSc3nc(=O)c(=O)[nH]n3C)CS[C@H]12)c1csc(N)n1` [ceftriaxone]: in assay [1], the “expression of GLT1 in the spinal cord” value was “increased”, the muscle strength entry is reported as “increase in the muscle strength” and the neuron number result is “recovery of neuron number”.
As for `CC(C)C[C@H](NC(=O)[C@@H](O)[C@H](N)Cc1ccccc1)C(=O)O` [ubenimex], the “interaction with the protein (binding level dose-proportional, saturated at high doses)” value (from here on “interaction with the protein”) on FLJ10335-derived protein is recorded as “interact specifically”.
With `Cc1onc(-c2c(Cl)cccc2Cl)c1C(=O)N[C@@H]1C(=O)N2[C@@H]1SC(C)(C)[C@@H]2C(=O)O` [dicloxacillin], the Kd at FLJ14583-derived protein (Biacore S51, immobilized FLJ14583-derived protein, analyte 62.5 μM to 0.244 μM, read-out: binding dissociation constant Kd) was determined as 23 µM. Further, on FLJ14583-derived protein (FLJ14583-derived protein, Biacore S51), the “interaction with the protein” value is on record as “interact specifically”.
Regarding `CC[C@@]1(O)C[C@H](O[C@H]2C[C@H](N(C)C)[C@H](O[C@H]3C[C@H](O)[C@H](O[C@H]4CCC(=O)[C@H](C)O4)[C@H](C)O3)[C@H](C)O2)c2c(cc3c(c2O)C(=O)c2c(O)cccc2C3=O)[C@H]1C(=O)OC` [aclarubicin], the “interaction with the protein” value on FLJ10889-derived protein was “interact specifically”.
With `C[C@H]1[C@H](C)CC[C@]2(C(=O)O)CC[C@]3(C)C(=CC[C@@H]4[C@@]5(C)CC[C@H](O)C(C)(C)[C@@H]5CC[C@]43C)[C@H]12` [ursolic acid], at FLJ12502-derived protein, the “interaction with the protein” value is listed as “interact specifically”.
Consider `CC1=C(C(=O)O)N2C(=O)[C@@H](NC(=O)[C@H](N)c3ccc(O)cc3)[C@H]2SC1` [cefadroxil], for which, at FLJ11045-derived protein (Biacore S51, immobilized FLJ11045-derived protein, analyte 62.5 μM to 0.244 μM, read-out: binding dissociation constant Kd), the Kd was 11.5 µM. On FLJ11045-derived protein (FLJ11045-derived protein, Biacore S51), the “interaction with the protein” value is on record as “interact specifically”.

One may read the Kd as the free concentration of one partner at which half of the binding sites on the other are occupied at equilibrium, for simple one-to-one binding.
